This experiment concerns the target T1, rat mGluR1 (metabotropic glutamate receptor 1) (Rattus norvegicus, UniProt P23385).
T1 construct: expressed in transfected cells; host or cells: CHO (Chinese hamster ovary) cells
As to the kind of experiment: mGluR1 antagonistic effect as assessed with reference to intracellular Ca2+ response in mGluR1 expressing CHO cells (Fura-2 fluorometry). It is filed as cell-based. The settings on record: Intracellular Ca2+ release induced by 10 μM glutamic acid. The source says: Evaluation Example 1. mGluR1 antagonistic effect as assessed with reference to intracellular Ca^2+ response in mGluR1 expressing CHO cells
Since mGluR1 (metabotropic glutamate receptor 1) induces release of Ca^2+ from intracellular Ca^2+ storage sites via the formation of inositol-1,4,5-triphosphate in the pathway of the intracellular signaling system, it is possible to evaluate the antagonistic activity of the compounds of the invention against mGluR1 with reference to intracellular Ca^2+ response in CHO cells in which recombinant rat mGluR1 gene is transfected.
The present inventors applied this evaluation system to assess the mGluR1 antagonistic activity of the compounds provided by this invention using CHO cells in which rat mGluR1 gene is expressed [S. Nakanishi et al.: Neuron, 8, 757 (1992)]. Intracellular Ca^2+ release induced by 10 μM glutamic acid in the presence of various concentrations of the compounds of the present invention added to culture medium was measured by fluorometry with Fura -2 [H. Sugino et al.: Brain Res., 322,127 (1984)]. The antagonistic effect against the induced intracellular Ca^2+ elevation was thus assessed by comparison with the control response in the absence of the test compounds.

Setting [1] is: read-out: 50% inhibitory concentrations (IC50), bound stated.

Read-outs that look alike come from different tables or passages of the source.

T1 sequence (P23385 19-1199): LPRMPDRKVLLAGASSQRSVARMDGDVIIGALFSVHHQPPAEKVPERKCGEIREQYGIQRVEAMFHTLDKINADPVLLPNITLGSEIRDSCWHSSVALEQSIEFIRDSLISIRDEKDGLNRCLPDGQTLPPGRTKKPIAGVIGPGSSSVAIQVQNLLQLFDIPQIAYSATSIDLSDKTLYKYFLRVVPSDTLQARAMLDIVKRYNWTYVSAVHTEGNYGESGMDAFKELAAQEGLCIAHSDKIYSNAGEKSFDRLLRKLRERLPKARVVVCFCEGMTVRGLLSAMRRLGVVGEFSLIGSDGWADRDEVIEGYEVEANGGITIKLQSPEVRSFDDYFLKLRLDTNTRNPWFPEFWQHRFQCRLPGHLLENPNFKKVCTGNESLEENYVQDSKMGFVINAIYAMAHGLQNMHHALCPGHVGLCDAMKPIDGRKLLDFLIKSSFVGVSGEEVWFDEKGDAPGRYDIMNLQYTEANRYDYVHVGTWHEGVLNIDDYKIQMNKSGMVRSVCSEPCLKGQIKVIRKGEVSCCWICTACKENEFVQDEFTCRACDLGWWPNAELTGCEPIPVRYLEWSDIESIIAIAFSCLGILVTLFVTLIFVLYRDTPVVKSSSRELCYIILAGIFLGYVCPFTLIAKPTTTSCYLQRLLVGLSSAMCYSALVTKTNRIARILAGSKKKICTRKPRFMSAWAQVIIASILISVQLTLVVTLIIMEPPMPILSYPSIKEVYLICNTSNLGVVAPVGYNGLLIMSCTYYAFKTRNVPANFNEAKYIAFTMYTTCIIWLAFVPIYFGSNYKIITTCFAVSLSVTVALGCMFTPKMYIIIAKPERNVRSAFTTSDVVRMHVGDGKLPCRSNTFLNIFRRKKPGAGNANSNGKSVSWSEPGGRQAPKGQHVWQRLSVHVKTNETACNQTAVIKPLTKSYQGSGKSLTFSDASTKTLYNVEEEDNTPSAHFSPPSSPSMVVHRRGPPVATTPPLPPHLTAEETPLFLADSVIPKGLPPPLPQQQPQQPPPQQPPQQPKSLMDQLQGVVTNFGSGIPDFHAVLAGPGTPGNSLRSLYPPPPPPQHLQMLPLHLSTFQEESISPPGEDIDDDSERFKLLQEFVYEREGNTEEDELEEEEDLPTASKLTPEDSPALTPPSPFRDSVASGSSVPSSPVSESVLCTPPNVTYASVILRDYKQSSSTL

In the case of `N[C@H](C(=O)O)c1ccc(C(=O)O)cc1` [(S)-4CPG, reference compound], where the note is “Table 3, read-out: IC50”, the IC50 amounted to 200 µM.
As for `CCOC(=O)C12CC1C(=NO)c1ccccc1O2` (stereo not drawn) [Example 32, 1a-ethoxycarbonyl-1a, 7a-dihydro-7(1H)-hydro-xyiminocyclopropa [b]chromen], the IC50 reads like this: (Table 3, read-out: IC50) 23 µM; under setting [1], at most 100 µM.
The corresponding values for `CC(C)COC(=O)C12CC1C(=NO)c1ccccc1O2` (stereo not drawn) [Example 34] are 20 µM and at most 100 µM.
The corresponding values for `O=C(Nc1ccccc1)C12CC1C(=NO)c1ccccc1O2` (stereo not drawn) [Example 35, 1a-(N-phenyl)carbamoyl-1a, 7a-dihydro-7(1H)-hydroxyiminocyclopropa[b]chromen] are 3 µM and at most 100 µM.
The corresponding values for `CN(C(=O)C12CC1C(=NO)c1ccccc1O2)c1ccccc1` (stereo not drawn) [Example 36, 1a-(N-methyl-N-phenyl)carbamoyl-1a, 7a-dihydro-7(1H)-hydroxyiminocyclopropa[b]chromen] are 10 µM and at most 100 µM.
For `COc1ccc(N(C)C(=O)C23CC2C(=NO)c2ccccc2O3)cc1` (stereo not drawn) [Example 41, 1a-(N-4-methoxyphenyl-N-methyl)carbamoyl-1a, 7a-dihydro-7(1H)-hydroxyimino-cyclopropa[b]chromen], the IC50 (Table 3, read-out: IC50) stood at 100 µM and the IC50 under setting [1] was at most 100 µM.
The corresponding values for `CN(C(=O)C12CC1C(=NO)c1ccccc1O2)c1ccc(Cl)cc1` (stereo not drawn) [Example 42, 1a-(N-4-chlorophenyl-N-methyl)-carbamoyl-1a, 7a-dihydro-7(1H)-hydroxyiminocyclopropa-[b]chromen] are 100 µM and at most 100 µM.
The corresponding values for `CN(Cc1ccccc1)C(=O)C12CC1C(=NO)c1ccccc1O2` (stereo not drawn) [Example 43, 1a-(N-benzyl-N-methyl)carbamoyl-1a, 7a-dihydro-7(1H)-hydroxyiminocyclopropa[b]chromen] are 20 µM and at most 100 µM.
Consider `O=C(N1CCN(c2ccc(F)cc2)CC1)C12CC1C(=NO)c1ccccc1O2` (stereo not drawn) [Example 53, 1a-(1-(4-fluorophenyl)-piperazinyl)arbonyl-1a, 7a-dihydro-7(1H)-hydroxyiminocyclopropa[b]chromen], for which the IC50 by setting is: (Table 3, read-out: IC50) 100 µM; under setting [1], at most 100 µM.
Take `CC(N)(C(=O)O)c1ccc(C(=O)O)cc1` (stereo not drawn) [MCPG, reference compound]: where the note is “Table 3, read-out: IC50”, the IC50 was determined as 700 µM.

The record behind these values is patent publication US5843988A, “Cyclopropachromencarboxylic acid derivatives” (Suntory Limited, priority 1995, dated 1998).
